The values that follow come from ChEMBL document CHEMBL3507680, “University of Dundee, Gates Library screen for HepG2 cell viability”.

A short description of the series: Human HepG2 cell viability assay in 384 well format. More on the design: dose 125 nL, time 70.5 hour; cytotoxicity at 70.5 h: concentration not given beside the values. As to conditions: HepG2 cells, read-out: Inhibition. The class given is toxicity, cell-based.
`COc1cc2cc(C(=O)O)n(C)c2cc1OC`: the cytotoxicity at 70.5 h was -14.4%.

As to `CC(=O)N(Cc1ncc(C(C)C)o1)C1CCN(Cc2ccno2)C1` (stereo not drawn), the cytotoxicity at 70.5 h was determined as 1.29%.

For `CN1C[C@H](c2ccccc2)[C@H]2CN(C(=O)Cc3cccc(O)c3)CC[C@H]21`, the cytotoxicity at 70.5 h was -2.25%.

`Nc1cc(-c2cncnc2C2CCN(C(=O)c3ccccc3)C2)ccn1` (stereo not drawn): the cytotoxicity at 70.5 h is 2.08%.

Turning to `Cc1ccc(C(=O)NCCCn2cccn2)c(=O)[nH]1`, the cytotoxicity at 70.5 h was -0.293%.

On to `CCC(C(=O)NC1(COC)CCCC1)n1cccn1` (stereo not drawn), for which the cytotoxicity at 70.5 h is 5.08%.

On to `Cn1cc(C2CCCN2C(=O)COC2CCCCC2)cn1` (stereo not drawn), for which the cytotoxicity at 70.5 h is -11.1%.

On to `Cn1nc(CNC(=O)C2CCN(S(C)(=O)=O)CC2)cc1C1CC1`, for which the cytotoxicity at 70.5 h is -3.55%.

Regarding `CN1CC(C(=O)NCc2cccnc2OCC(F)(F)F)CC1=O` (stereo not drawn), the cytotoxicity at 70.5 h is -2.61%.

With `CNC(=O)[C@@H]1[C@H]2CN(Cc3ccccn3)CCN2C[C@H]1c1ccccc1`, the cytotoxicity at 70.5 h turned out to be 4.19%.

As to `O=C(c1cscn1)N1CCC2(CCN(Cc3nccs3)CC2)C1`, the cytotoxicity at 70.5 h was -23.5%.

On to `CCCc1noc(CCC(=O)N2CCCC2Cn2cc(C)cn2)n1` (stereo not drawn), for which the cytotoxicity at 70.5 h is -10.8%.

As to `CCc1cc(CNC(=O)C2CCCN(C(=O)NCC(C)C)C2)[nH]n1` (stereo not drawn), the cytotoxicity at 70.5 h was -11.9%.

Consider `COc1ccccc1CC(=O)NC(C)c1nc2cccnc2n1C(C)C` (stereo not drawn), for which the cytotoxicity at 70.5 h was -1.11%.

Take `COCCNc1nnc(-c2ccc(C)nc2)s1`: the cytotoxicity at 70.5 h is 1.91%.

For `Cc1nc(C2CCCN(C(=O)c3csc(C)n3)C2)no1` (stereo not drawn), the cytotoxicity at 70.5 h was found to be 4.29%.

As for `CN(CC(O)CO)c1nc(-c2cccnc2)nc2c1CCNC2` (stereo not drawn), the cytotoxicity at 70.5 h was -17.2%.

`Cc1cnn(CC2CCCN2C(=O)CCc2cscn2)c1` (stereo not drawn): the cytotoxicity at 70.5 h was -13.6%.

As to `COc1cc(N2CCc3ncnc(-c4cnn(C)c4)c3CC2)ncn1`, the cytotoxicity at 70.5 h is -12%.

With `CCN(CC)c1ncc(CNC2CCc3ncnn3C2)s1` (stereo not drawn), the cytotoxicity at 70.5 h is -5.42%.

As to `C[C@@H](NC(=O)c1cnccn1)c1c(-c2ccc(F)cc2)noc1C(=O)O`, the cytotoxicity at 70.5 h was -1.48%.

As to `Cc1ccc(CN(CCCN(C)C)Cc2cnc(C)n2C)o1`, the cytotoxicity at 70.5 h stood at 6.53%.

Turning to `COc1ncccc1C(=O)N1CC[C@H]2C[C@@H](C)O[C@@H]2C1`, the cytotoxicity at 70.5 h was -21.5%.

On to `O=C(Cc1ccccn1)N1CCC2(CC1)CN(CC1CC1)C(=O)CO2`, for which the cytotoxicity at 70.5 h was -5.52%.

Regarding `Cc1cnn(CC2CCCN2Cc2cn3ccsc3n2)c1` (stereo not drawn), the cytotoxicity at 70.5 h was -9.34%.

As to `CN(C)Cc1cncc2c1CCN(Cc1cnn(C)c1)C2`, the cytotoxicity at 70.5 h is -0.555%.

In the case of `CCOc1ccc(CCCC(=O)N2CC[C@H](NC(C)=O)C2)cc1C`, the cytotoxicity at 70.5 h is -12.4%.

For the compound `Cc1nc2cc(CNC(=O)C3CC(=O)N(CCN(C)C)C3)ccc2n1C` (stereo not drawn), the cytotoxicity at 70.5 h is -2.99%.

In the case of `Cc1cccc2c1C(=O)NC(c1cnc(C3CCC3)s1)N2` (stereo not drawn), the cytotoxicity at 70.5 h is -21.1%.

In the case of `Cn1cc(C(=O)NC2CCN(C(=O)NCC3CCSCC3)CC2)cn1`, the cytotoxicity at 70.5 h was -3.27%.

As for `CCn1c(-c2ccccc2)nn(CC(=O)NCCc2ccc(C)o2)c1=O`, the cytotoxicity at 70.5 h is -0.836%.

`CNC(=O)Cc1csc(NC(=O)C2CSCCC(=O)N2)n1` (stereo not drawn): the cytotoxicity at 70.5 h came to 14.7%.

For the compound `Cc1nc(CN2CCO[C@H]3[C@@H](OCc4ccccn4)CC[C@@H]32)cs1`, the cytotoxicity at 70.5 h is -23.4%.

For `COc1cccc2c1OCC(NC(=O)NC1CCN(C3CC3)CC1)C2` (stereo not drawn), the cytotoxicity at 70.5 h is -5.93%.

As for `CCN(CC1CN(CCc2ccccn2)CCO1)c1cccnn1` (stereo not drawn), the cytotoxicity at 70.5 h was -3.03%.

For the compound `COC1CC2(CCN(Cc3nccn3C)CC2)C1`, the cytotoxicity at 70.5 h is -5.43%.

`CC1CCN(S(=O)(=O)NCc2ccccc2Cn2cccn2)CC1`: the cytotoxicity at 70.5 h was found to be 14.5%.

On to `O=C(NCc1ncc(-c2ccccc2)o1)NC1CCC(O)CC1` (stereo not drawn), for which the cytotoxicity at 70.5 h was -7.39%.

`Cc1ccc(OCc2cccc(C(=O)N(C)CCC#N)c2)cn1`: the cytotoxicity at 70.5 h is 0.941%.

With `N#CCCN(C(=O)CCc1cscn1)c1ccc2c(c1)OCCO2`, the cytotoxicity at 70.5 h came to 16.5%.

As for `CCc1nc(C2CCCN2CC(=O)NCCOc2ccccc2)no1` (stereo not drawn), the cytotoxicity at 70.5 h came out at 11.4%.

Regarding `CCCc1nc(CN2CCCCC2Cn2cncn2)cs1` (stereo not drawn), the cytotoxicity at 70.5 h is -7.91%.

In the case of `c1ccc(COC[C@H]2CC[C@H]3[C@H](CCN3Cc3cccnc3)O2)nc1`, the cytotoxicity at 70.5 h amounted to 9.23%.

As for `Cc1cc(CNC2CCCN(Cc3noc(C4CC4)n3)C2)on1` (stereo not drawn), the cytotoxicity at 70.5 h was determined as 23.9%.

`CCN1CCC(CC(=O)N2CCCCC2CCn2cccn2)CC1` (stereo not drawn): the cytotoxicity at 70.5 h was -11.1%.

With `COCC1CC2(CCN(c3cccc(C)n3)CC2)CN1C(C)C` (stereo not drawn), the cytotoxicity at 70.5 h was -8.05%.

For the compound `COCc1ncn2c1CN(S(=O)(=O)c1cccs1)CCC2`, the cytotoxicity at 70.5 h turned out to be 10.6%.

Turning to `CCOCC1(CNCc2cc(O)c3cc(C)ccc3n2)CC1`, the cytotoxicity at 70.5 h was -1.7%.

On to `CCOc1cc(F)ccc1NC(=O)N(C)Cc1cnn(C)c1`, for which the cytotoxicity at 70.5 h was -5.78%.

Turning to `Cc1cc(N2Cc3cnc(CC(C)C)nc3C2)nc(N)n1`, the cytotoxicity at 70.5 h stood at 0.669%.

`COc1ccc2c(c1)CC(NCc1cccc(CO)c1)CC2` (stereo not drawn): the cytotoxicity at 70.5 h was -6.72%.

On to `Cc1cc(C2CCCN(CCNS(=O)(=O)c3ccccc3)C2)n[nH]1` (stereo not drawn), for which the cytotoxicity at 70.5 h is 24.5%.

As to `COc1cccc2[nH]cc(CCNC(=O)N3CCCC3CO)c12` (stereo not drawn), the cytotoxicity at 70.5 h was 2.83%.

Consider `COCc1nnn2c1CN(C(=O)c1c[nH]cn1)CCC2`, for which the cytotoxicity at 70.5 h was found to be 0.823%.

For the compound `CN(Cc1ccc(Cl)cc1)S(=O)(=O)N(C)Cc1cnn(C)c1`, the cytotoxicity at 70.5 h was -1.12%.

With `CCO[C@H]1C[C@@H](O)C12CCN(C1CCN(c3ccccc3)CC1)CC2`, the cytotoxicity at 70.5 h is -5.15%.

As to `CC1CC(=O)c2cc(C(=O)N3CCN(C)CC3)c(=O)[nH]c2C1` (stereo not drawn), the cytotoxicity at 70.5 h was -5.53%.

Regarding `CC(=O)N1[C@H](Cn2cncn2)C[C@@H]2CN(C(=O)c3ccoc3)CC[C@@H]21`, the cytotoxicity at 70.5 h was -6.21%.

As to `COCC(=O)N1CCC2(CCN(Cc3ccccn3)CC2)CC1`, the cytotoxicity at 70.5 h is -23.5%.

For the compound `CC(=O)N[C@@H]1CN(C(=O)c2cc(C)oc2C)C[C@H]1c1ccc(C)o1`, the cytotoxicity at 70.5 h came out at 23.3%.

As for `Cn1cccc1C(=O)NC1(C(=O)NCC2CC2)CCCC1`, the cytotoxicity at 70.5 h is -11.4%.

Regarding `CCn1ccnc1CN1CCN(CC(=O)NC(=O)NC2CC2)CC1`, the cytotoxicity at 70.5 h is -8.53%.

On to `Cc1ncc(CN2CC[C@@](C)(O)[C@H](Oc3cccc(F)c3)C2)cn1`, for which the cytotoxicity at 70.5 h was found to be 14.8%.

On to `CCC(CO)NCc1ccc(-c2ccc(Br)cc2)o1` (stereo not drawn), for which the cytotoxicity at 70.5 h came out at 0.103%.

In the case of `COc1ccc(-c2noc([C@@H]3C[C@@H](O)CN3C3CCOCC3)n2)cc1`, the cytotoxicity at 70.5 h was determined as 41.8%.

For the compound `CC1CCN(CCNC(=O)C2CCN(C(=O)C(C)(C)C)CC2)CC1`, the cytotoxicity at 70.5 h is -3.74%.

Take `Nc1cc(CCC2CN(Cc3ccc(C(=O)O)cc3)CCO2)ccn1` (stereo not drawn): the cytotoxicity at 70.5 h stood at 23.8%.

As to `Cc1c(C2CCCN(C(=O)c3cccnc3)C2)n2c(nc1=O)CCC2` (stereo not drawn), the cytotoxicity at 70.5 h was -8.11%.

On to `CC(C)(NCC(=O)NCC(F)(F)F)c1ccc2c(c1)OCCO2`, for which the cytotoxicity at 70.5 h is -16.8%.

On to `CSCC1CCN(C(=O)Cn2ncc(N3CCCCC3)cc2=O)CC1`, for which the cytotoxicity at 70.5 h is -16.3%.

On to `CN(CCOc1ccc(Br)cc1)Cc1cscn1`, for which the cytotoxicity at 70.5 h came out at 1.92%.

For `Cc1ccc2cccc(S(=O)(=O)N(C)C3CCCN(C)C3)c2n1` (stereo not drawn), the cytotoxicity at 70.5 h was 0.353%.

For `NCC(CO)Cc1cccc(OC(F)(F)F)c1` (stereo not drawn), the cytotoxicity at 70.5 h came out at 2.39%.

`CN(C)S(=O)(=O)N1CC[C@]2(O)CCN(Cc3cc(F)cc(F)c3)C[C@@H]2C1`: the cytotoxicity at 70.5 h came out at 10.9%.

As for `CCO[C@@H]1CN(Cc2scnc2C)[C@@H]2CCCO[C@@H]21`, the cytotoxicity at 70.5 h was -10.5%.

Regarding `COc1ccc(CC(=O)NC2CCc3nc(C)cn3C2)cc1` (stereo not drawn), the cytotoxicity at 70.5 h was -7.41%.

With `CCOC(C)c1nccn1Cc1c(C)noc1C` (stereo not drawn), the cytotoxicity at 70.5 h was -2.96%.

Consider `O=C(O)c1cc(NS(=O)(=O)c2ccccc2F)ccc1N1CCSCC1`, for which the cytotoxicity at 70.5 h is -8.7%.

As to `Cn1cc(-c2nc(C(=O)N3CCCC3c3cnn(C)c3)cs2)cn1` (stereo not drawn), the cytotoxicity at 70.5 h is -5.1%.

With `CC(C)OCCCN(Cc1ccncc1)Cc1cc(F)ccc1F`, the cytotoxicity at 70.5 h was -4.35%.

For the compound `CC(C)c1ncc(CNC2(c3ccc(Cl)cc3)CC2)cn1`, the cytotoxicity at 70.5 h is -1.4%.

As for `Cc1ncnc2c1CCN(Cc1ccc3c(c1)OCO3)CC2`, the cytotoxicity at 70.5 h is -3.06%.

Turning to `CC(CCN1CCn2nc(CNC(=O)N(C)C)cc2C1)c1ccccc1` (stereo not drawn), the cytotoxicity at 70.5 h was -6.81%.

Consider `c1ccc(Cc2noc(CN(Cc3cccs3)CC3CCCO3)n2)cc1` (stereo not drawn), for which the cytotoxicity at 70.5 h is -4.54%.

Consider `Cc1cc(C)n(C2CN(CC(=O)NC3CCS(=O)(=O)C3)C2)n1` (stereo not drawn), for which the cytotoxicity at 70.5 h is -9.43%.

Consider `Cc1noc(CN(C)CC(c2cccs2)N2CCOCC2)n1` (stereo not drawn), for which the cytotoxicity at 70.5 h is -4.96%.

Consider `CN(Cc1ccco1)C(=O)Nc1cccnc1N1CCCC1`, for which the cytotoxicity at 70.5 h was -3.81%.

For `CC(=O)NC(C)C(=O)NCc1ccc(N2CCNC(=O)C2)cc1` (stereo not drawn), the cytotoxicity at 70.5 h is -15.7%.

Consider `Clc1cc(NCc2ncc[nH]2)nc2[nH]ccc12`, for which the cytotoxicity at 70.5 h was -6.45%.

Regarding `CS(=O)(=O)NC1CCCN(c2ccc(C#N)cn2)C1` (stereo not drawn), the cytotoxicity at 70.5 h was -6.77%.

Take `O=C([C@H]1C[C@H]2OCC[C@H]2N(C(=O)C2CCOCC2)C1)N1CCCCO1`: the cytotoxicity at 70.5 h was -2.55%.

`Cc1noc(C)c1CN1CCc2ncc(CN3CCCC3)n2CC1`: the cytotoxicity at 70.5 h was -5.92%.

In the case of `Cc1cc(CN2CCC(C3CCN(CC(C)C)CC3)C2)[nH]n1` (stereo not drawn), the cytotoxicity at 70.5 h is -3.48%.

Take `NC(=O)NCC(=O)N1CCC(c2cc(-c3ccccc3Cl)n[nH]2)CC1`: the cytotoxicity at 70.5 h is -4.95%.

On to `CCC1CN(C(=O)COc2ccc(NC(C)=O)cc2)CCO1` (stereo not drawn), for which the cytotoxicity at 70.5 h is 13.7%.

For `CN1C[C@@H](C(=O)N(C)C)[C@@]2(CCc3ccccc3C(=O)N2)C1`, the cytotoxicity at 70.5 h is 0.772%.

For `O=C(N[C@@H]1CCC[C@@H](N2CCOCC2)[C@@H]1O)c1cnn2cccnc12`, the cytotoxicity at 70.5 h is -1.42%.

With `NC(=O)C1(CNC(=O)CCc2ccc(Cl)s2)CCOCC1`, the cytotoxicity at 70.5 h was -7.77%.
